Data as given in patent publication US12024736B2, “Method for detecting l-serine based on Escherichia coli cysteine desulfurase” (priority 2021, dated 2024).

How the values were obtained:
Format in all cases: biochemical
[1] = target: T1, E. coli cysteine desulfurase (Escherichia coli, UniProt P0A6B7, P222S); assay: Determination of the ability to resist other L-amino acids (colour after incubation with enzyme); details: 4 mM amino acid, equal volume of enzyme, 37° C., 250 rpm, 2 h, naked eye
T1 construct: C-terminal histidine stretch (HHHHHH); made in house; host or cells: E. coli (IscA-/SufA- double-deficient strain is mentioned in the summary)

[2] = target: T1, E. coli cysteine desulfurase; assay: Quantitative detection of L-serine, absorbance at 528 nm (reaction time and linear range); details: L-serine standard with reaction buffer, 25° C.
Procedure: B. Reaction buffer: 40 mM Tris-HCl buffer (pH 9.0), 100 μM E. coli cysteine desulfurase, and 0.4 mM L-cysteine.
L-serine to be tested was mixed with the reaction buffer in equal volumes, and incubated at 25° ° C. for different times; the absorbance was measured at a wavelength of 528 nm; a curve was plotted with the time as the horizontal axis and the absorbance value at 528 nm as the longitudinal axis.
The L-serine standard solution was diluted to three concentrations, respectively: 0.50 mM, 1.00 mM, and 2.00 mM. Each serial dilution of the standard solution and the unknown sample (100 μL) were each mixed with 100 μL of reaction buffer, incubated at room temperature (25° C.) for 2 h, and the absorbance at 528 nm was measured for sample and standard tubes, respectively.
A standard curve was plotted with the concentration of the standard solution as the abscissa and the absorbance measured at a wavelength of 528 nm as the ordinate, and the curve was fitted to obtain a curve equation and an R^2 value.

[3] = target: T1, E. coli cysteine desulfurase; assay: Anti-interference of the detection method for D-serine, cycloserine and serine derivatives

SMILES | colour after incubation with E. coli cysteine desulfurase [1] | incubation time at which the absorption peak at 528 nm reaches the highest [2] | anti-interference ability of the detection method [3]
N[C@@H](CO)C(=O)O [L-serine] | red | 2 h | –
N[C@@H]1CON=C1O [cycloserine] | – | – | good anti-interference ability
N[C@H](CO)C(=O)O [D-serine] | – | – | good anti-interference ability
